US11345666B2, “Phenyl and pyridinyl substituted imidazoles as modulators of RORγT” (Janssen Pharmaceutica NV, priority 2018, dated 2022)
Read-outs that look alike come from different tables or passages of the source. Marks after values point to notes of the source that are not given here.

Legend:
full-length human RORγt = full-length human RORγt (Homo sapiens (Human), UniProt P51449); test: RORγt (full-length human) reporter assay, conditions A or B; format: cell-based; conditions: for inhibition at 2 µM: 2 μM compound concentration (**); for IC50: HEK293T cells, read-out: RORγt (FL) Reporter Assay A or B, IC50; for inhibition at 6 µM: read-out: RORγt (FL) Reporter Assay A or B, % inhibition @ 6 μM, 6 μM compound concentration
How it was run: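 HEK293T cells transiently co-transfected (PEI) with GAL4-DBD–RORγt, GAL4-firefly luciferase and CMV-Renilla reporters; condition A 35,000 cells/well, 170.5 ng DNA/well; condition B 8750 cells/well, 42.6 ng DNA/well.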

[1] = tested on: IL-17 production by CD4 T cells; test: Human Th17 assay; format: cell-based; conditions: 72 h, IL-17 in supernatant after 3 days
Text: The human Th17 assay tests the effect of RORγt modulatory compounds on IL-17 production by CD4 T cells under conditions which favor Th17 differentiation. Total CD4^+ T cells were isolated from the peripheral blood mononuclear cells (PBMC) of healthy donors using a CD4^+ T cell isolation kit II, following the manufacturer's instructions (Miltenyi Biotec). Cells were resuspended in a medium of RPMI-1640 supplemented with 10% fetal bovine serum, penicillin, streptomycin, glutamate, and β-mercaptoethanol and were added to 96-well plates at 1.5×10^5 per 100 μL per well. 50 μL of compound at titrated concentrations in DMSO were added into each well at final DMSO concentration at 0.2%. Cells were incubated for 1 hour, then 50 μL of Th17 cell differentiation medium was added to each well. The final concentrations of antibodies and cytokines (R&D Systems) in differentiation medium were: 3×10^6/mL anti-CD3/CD28 beads (prepared using human T cell activation/expansion kit, Miltenyi Biotec), 10 μg/mL anti-IL4, 10 μg/mL anti-IFNγ, 10 ng/mL IL1β, 10 ng/mL IL23, 50 ng/mL IL6, 3 ng/mL TGFβ and 20 U/mL IL2. Cells were cultured at 37° C. and 5% CO2 for 3 days. Supernatants were collected and the accumulated IL-17 in culture was measured by using MULTI-SPOT® Cytokine Plate following manufacture's instruction (Meso Scale Discovery). The plate was read using Sector Imager 6000, and IL-17 concentration was extrapolated from the standard curve. The IC50s were determined by GraphPad.

[2] = read-out: RORγt (FL) Reporter Assay A or B, % inhibition
[3] = 0.67 μM compound concentration (****), read-out: RORγt (FL) Reporter Assay A or B, % inhibition
[4] = 0.22 μM compound concentration (******), read-out: RORγt (FL) Reporter Assay A or B, % inhibition

Chain of full-length human RORγt (P51449 other isoform, or with tags, fused parts or gaps): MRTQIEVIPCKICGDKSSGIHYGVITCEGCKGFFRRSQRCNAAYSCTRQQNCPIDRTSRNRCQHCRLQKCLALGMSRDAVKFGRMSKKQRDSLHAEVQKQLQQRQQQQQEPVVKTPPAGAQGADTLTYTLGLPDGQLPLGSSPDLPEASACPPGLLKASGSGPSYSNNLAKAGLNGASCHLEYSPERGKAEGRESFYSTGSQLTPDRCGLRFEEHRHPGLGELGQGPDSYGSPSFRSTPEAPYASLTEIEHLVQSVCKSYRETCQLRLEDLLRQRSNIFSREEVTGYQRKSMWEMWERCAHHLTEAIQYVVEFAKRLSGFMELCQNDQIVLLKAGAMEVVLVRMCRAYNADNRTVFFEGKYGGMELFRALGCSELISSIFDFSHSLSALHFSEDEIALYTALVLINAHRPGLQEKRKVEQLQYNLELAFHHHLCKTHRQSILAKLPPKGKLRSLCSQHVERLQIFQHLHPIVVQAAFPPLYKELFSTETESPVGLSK

Compound	IC50 (full-length human RORγt) [nM]	IC50 [1] [nM]	further results
CCc1nc(C(=O)NC[C@]2(O)CC[C@@H](S(C)(=O)=O)CC2)c(C)n1-c1ccc(CC(C(F)(F)F)C(F)(F)F)cc1F [Example 109, 2-Ethyl-1-(2-fluoro-4-(3,3,3-trifluoro-2-(trifluoromethyl)propyl)phenyl)-N-(((1s,4s)-1-hydroxy-4-(methylsulfonyl)cyclohexyl)methyl)-5-methyl-1H-imidazole-4-carboxamide]	22	79	inhibition at 0.67 µM (full-length human RORγt; [3]): 97%
CCc1nc(C(=O)NC[C@H]2CC[C@H](S(C)(=O)=O)CC2)c(F)n1-c1ccc(N[C@H](C)C(F)(F)F)cc1OC [Example 12, 2-Ethyl-5-fluoro-1-(2-methoxy-4-(((R)-1,1,1-trifluoropropan-2-yl)amino)phenyl)-N-(((1r,4R)-4-(methylsulfonyl)cyclohexyl)methyl)-1H-imidazole-4-carboxamide]	160	220	inhibition at 6 µM (full-length human RORγt): 109%
CCc1nc(C(=O)NC[C@H]2CC[C@H](S(C)(=O)=O)CC2)c(Cl)n1-c1ccc(CCC(F)(F)F)cc1F [Example 22, 5-Chloro-2-ethyl-1-(2-fluoro-4-(3,3,3-trifluoropropyl)phenyl)-N-(((1r,4r)-4-(methylsulfonyl)cyclohexyl)methyl)-1H-imidazole-4-carboxamide]	15	42	inhibition at 0.22 µM (full-length human RORγt; [4]): 38%
[2H]C([2H])([2H])Oc1cc(CC(C)(C)C(F)(F)F)ccc1-n1c(CC)nc(C(=O)NC[C@H]2CC[C@H](S(C)(=O)=O)CC2)c1C#N [Example 27, 5-Cyano-2-ethyl-1-(2-(methoxy-d3)-4-(3,3,3-trifluoro-2,2-dimethylpropyl)phenyl)-N-(((1r,4r)-4-(methylsulfonyl)cyclohexyl)methyl)-1H-imidazole-4-carboxamide]	18	13	inhibition at 0.67 µM (full-length human RORγt; [3]): 97%
CCc1nc(C(=O)NC[C@H]2CC[C@H](S(C)(=O)=O)CC2)c(C)n1-c1ccc(CC(C)C(F)(F)F)cc1OC (single isomer, unassigned) [Example 7]	12	7	inhibition at 0.22 µM (full-length human RORγt; read-out: RORγt (FL) Reporter Assay A or B, % inhibition, 0.22 μM compound concentration (******)): 91%
CCc1nc(C(=O)NC[C@H]2CC[C@H](S(C)(=O)=O)CC2)c(Cl)n1-c1ccc(CC(C)C(F)(F)F)cc1OC (single isomer, unassigned) [Example 6, 5-Chloro-2-ethyl-1-((1S*)-2-methoxy-4-(3,3,3-trifluoro-2-methylpropyl)phenyl)-N-(((1r,4S)-4-(methylsulfonyl)cyclohexyl)methyl)-1H-imidazole-4-carboxamide]	6	2	RORγt (FL) Reporter Assay A or B, % inhibition (full-length human RORγt; 0.67 μM compound concentration (****)): 99**** %
CCc1nc(C(=O)NC[C@]2(O)CC[C@@H](S(C)(=O)=O)CC2)c(Cl)n1-c1c(F)cc(CC(C)C)cc1F [Example 83, 5-Chloro-1-(2,6-difluoro-4-isobutylphenyl)-2-ethyl-N-(((1s,4s)-1-hydroxy-4-(methylsulfonyl)cyclohexyl)methyl)-1H-imidazole-4-carboxamide]	120	> 6000	inhibition at 2 µM (full-length human RORγt; [2]): 23%
CCc1nc(C(=O)NC[C@H]2CC[C@H](S(C)(=O)=O)CC2)c(C#N)n1-c1ccc(CC(C)(C)C(F)(F)F)cc1OC(F)F [Example 36, 5-Cyano-1-(2-(difluoromethoxy)-4-(3,3,3-trifluoro-2,2-dimethylpropyl)phenyl)-2-ethyl-N-(((1r,4r)-4-(methylsulfonyl)cyclohexyl)methyl)-1H-imidazole-4-carboxamide]	13	8	inhibition at 2 µM (full-length human RORγt; [2]): 101%

Second part, led by results:

IC50 (full-length human RORγt) [nM]	IC50 [1] [nM]	Compound	further results
36	31	CCc1nc(C(=O)NC[C@H]2CC[C@H](S(C)(=O)=O)CC2)c(Cl)n1-c1ccc(N[C@H](C)C(F)(F)F)cc1OC [Example 3, 5-Chloro-2-ethyl-1-(2-methoxy-4-(((R)-1,1,1-trifluoropropan-2-yl)amino)phenyl)-N-(((1r,4R)-4-(methylsulfonyl)cyclohexyl)methyl)-1H-imidazole-4-carboxamide]	inhibition at 2 µM (full-length human RORγt; [2]): 101%
12	85	CCc1nc(C(=O)NC[C@H]2CC[C@H](S(C)(=O)=O)CC2)c(Cl)n1-c1ncc(CC(C)(C)C(F)(F)F)cc1OC(F)F [Example 2, 5-Chloro-1-(3-(difluoromethoxy)-5-(3,3,3-trifluoro-2,2-dimethylpropyl)pyridin-2-yl)-2-ethyl-N-((4-(methylsulfonyl)cyclohexyl)methyl)-1H-imidazole-4-carboxamide]	inhibition at 1 µM (full-length human RORγt; 1 μM compound concentration (***), read-out: RORγt (FL) Reporter Assay A or B, % inhibition): 84%
6.7	58	CCc1nc(C(=O)NC[C@]2(O)CC[C@@H](S(C)(=O)=O)CC2)c(Cl)n1-c1ccc(CC(C(F)(F)F)C(F)(F)F)cc1F [Example 100, 5-Chloro-2-ethyl-1-(2-fluoro-4-(3,3,3-trifluoro-2-(trifluoromethyl)propyl)phenyl)-N-(((1s,4s)-1-hydroxy-4-(methylsulfonyl)cyclohexyl)methyl)-1H-imidazole-4-carboxamide]	inhibition at 0.22 µM (full-length human RORγt; [4]): 100%
86	69	CCc1nc(C(=O)NC[C@]2(O)CC[C@@H](S(C)(=O)=O)CC2)c(C#N)n1-c1ccc(CC(C)(C)C(F)(F)F)cc1OC(F)(F)F [Example 111, 5-Cyano-2-ethyl-N-(((1s,4s)-1-hydroxy-4-(methylsulfonyl)cyclohexyl)methyl)-1-(4-(3,3,3-trifluoro-2,2-dimethylpropyl)-2-(trifluoromethoxy)phenyl)-1H-imidazole-4-carboxamide]	inhibition at 6 µM (full-length human RORγt): 99%
